Key:
[1] = molecular target: T1, CISD2 Gene Product (NAF-1) (Homo sapiens, UniProt Q8N5K1); test: Stability of Fe-S cluster binding of purified NEET protein (absorbance 458 nm); format: biochemical; conditions: for Residual cluster bound at end of experiment (Percentage Absorbance 458 nm at time zero): at 500 minutes, vehicle control 3%; for Residual cluster bound at end of experiment (Percentage Absorbance 458 nm at time zero) / Time (in minutes) to achieve 50% loss of bound cluster (Absorbance 458 nm): 60 μM compound; for Stabiliser of Fe—S cluster binding (time to 50% loss increased by more than 25% vs control): at the concentrations tested; for Time (in minutes) to achieve 50% loss of bound cluster (Absorbance 458 nm): pH 6, 37° C., 20 μM protein, run time 500 minutes, vehicle control 310
T1 sequence (Q8N5K1 57-135 limits assumed): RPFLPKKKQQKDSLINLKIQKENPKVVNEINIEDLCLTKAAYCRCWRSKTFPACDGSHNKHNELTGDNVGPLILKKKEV
Procedure: (§1) The modulator effect on the NEET proteins encoded by human CISD1, CISD2, and CISD3 genes by the compounds of the invention has been tested and is reported below. Particularly, the biochemical function of the NEET proteins is measured by the stability of Fe—S cluster binding of the purified NEET proteins.
(§2) The Fe—S cluster binding capacity of NEET proteins is known to be coordinated by four amino-acids in a stretch of 16 (three Cysteine and one Histidine). As the lability of the Fe—S cluster of NEET proteins is sensitive to the environment, cluster stability measurements are one of the measures of interactions of NEET proteins with small molecules and compounds. NEET protein/2Fe-2S cluster stability can be assessed by monitoring the decay in absorbance of its characteristic 458-nm peak (characteristic of the oxidized 2Fe-2S cluster) over time. Each NEET protein (mitoNEET, NAF-1 and Miner 2) was tested for its Fe—S binding in the absence or presence of a compound according to the invention (see table 3 below). The rate of cluster release (time in minutes to achieve 50% loss of bound Fe—S cluster) was compared for each NEET protein in the presence of one of the compounds of the invention (in a 1:3 protein:compound molar ratio) relative to each protein alone.
(§3) At pH 6, all the three NEET proteins (mitoNEET, NAF-1 and Miner 2) have a characteristic rate of loss of the bound Fe—S cluster that can be measured by the decrease of absorbance at wavelength 458 nm over time, using a spectrophotometer. Thus, Bis-Tris buffer (100 mM Bis-Tris pH6, 100 mM Nacl) was used at pH 6 to dilute either DMSO (Blank sample: Bis-Tris Buffer pH 6, 66 μM DMSO), DMSO and one of the three NEET proteins (Control sample: Bis-Tris Buffer pH 6, 66 μM DMSO, 20 μM purified NEET protein) or DMSO, one of the three NEET proteins and a compound of the invention (Test sample: Bis-Tris Buffer pH 6, 66 μM DMSO, 20 μM purified NEET protein, 60 μM compound of the invention).
(§4) A reaction mix containing DMSO diluted in the Bis-Tris Buffer with or without a compound of the invention was prepared. The purified NEET protein was the last component added to the reaction mix which was then aliquoted into 4 replicates in 96 wells plates. The absorbance at wavelength 458 nm was taken at 5 minutes intervals at 37° C. with a spectrofluorimeter. The assay run time for CISD2 gene product (NAF-1) was 500 minutes and 180 minutes for both the CISD 1 gene product (mitoNEET) and the CISD3 gene product (Miner 2).
(§5) In addition to time monitoring, residual bound Fe—S cluster to NEET protein was measured at the final point of the spectrometry assay for each Test sample and compared to the Control sample data (in parenthesis table 3). This residual binding is measured by the differential percentage between the absorbance 458 nm at time zero and the absorbance 458 nm at the end of the experiment (i.e. respectively 500 or 180 minutes as described hereabove), showing the percentage of NEET protein still able to bind Fe—S cluster.
(§6) Analysis of the absorbance enables the time for which 50% loss of bound Fe—S cluster is reached (i.e. a 50% absorbance decrease at 458 nm) for each Test sample and each Control sample (in parenthesis table 3) to be determined. The data are then compared to determine whether the compound of the invention stabilizes or destabilizes the NEET protein/Fe—S cluster binding.
(§7) Stabilisers of Fe—S cluster binding by the NEET proteins slow the release of bound Fe—S (i.e. increase the time needed to reach 50% Fe—S cluster bound loss by more than 25% for the Test sample compared to the Control sample). As illustrated by table 3, at the concentrations tested, stabilisers of CISD1 Gene Product (mitoNEET) are the compounds #9, #18, #26, #2, #1, and #42. Stabilisers of CISD2 Gene Product (NAF-1) are the compounds #2, #1, and #40. Stabilisers of CISD3 Gene Product (Miner2) are the compounds #9, #18, #26, #2, #1, and #42.

[2] = molecular target: T2, CISD3 Gene Product (Miner2) (Homo sapiens, UniProt P0C7P0); test: as above; format: biochemical; conditions: for Residual cluster bound at end of experiment (Percentage Absorbance 458 nm at time zero): CISD3 gene product, at 180 minutes, vehicle control (DMSO) 11%; for Residual cluster bound at end of experiment (Percentage Absorbance 458 nm at time zero) / Time (in minutes) to achieve 50% loss of bound cluster (Absorbance 458 nm): 60 μM compound; for Stabiliser of Fe—S cluster binding (time to 50% loss increased by more than 25% vs control) / Time (in minutes) to achieve 50% loss of bound cluster (Absorbance 458 nm): Miner2; for Stabiliser of Fe—S cluster binding (time to 50% loss increased by more than 25% vs control): at the concentrations tested; for Time (in minutes) to achieve 50% loss of bound cluster (Absorbance 458 nm): pH 6, 37° C., 20 μM protein, run time 180 minutes, vehicle control 60
T2 sequence (P0C7P0 15-127): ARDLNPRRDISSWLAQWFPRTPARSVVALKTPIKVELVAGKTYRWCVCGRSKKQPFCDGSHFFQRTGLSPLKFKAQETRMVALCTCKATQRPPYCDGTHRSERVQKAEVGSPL
Procedure: as §1, §2, §3, §4, §5, §6, §7

[3] = molecular target: T3, CISD1 Gene Product (mitoNEET) (Homo sapiens, UniProt Q9NZ45); test: as above; format: biochemical; conditions: for Residual cluster bound at end of experiment (Percentage Absorbance 458 nm at time zero): at 180 minutes, vehicle control 16%; for Residual cluster bound at end of experiment (Percentage Absorbance 458 nm at time zero) / Time (in minutes) to achieve 50% loss of bound cluster (Absorbance 458 nm): 60 μM compound; for Stabiliser of Fe—S cluster binding (time to 50% loss increased by more than 25% vs control): at the concentrations tested; for Time (in minutes) to achieve 50% loss of bound cluster (Absorbance 458 nm): pH 6, 37° C., 20 μM protein, run time 180 minutes, vehicle control 80
T3 sequence (Q9NZ45 33-108 limits assumed): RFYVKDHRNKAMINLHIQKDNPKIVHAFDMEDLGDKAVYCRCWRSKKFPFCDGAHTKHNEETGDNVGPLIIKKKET
Procedure: as §1, §2, §3, §4, §5, §6, §7

[4] = tested on: H1N1 (influenza A/New Caledonia/20/99); test: Antiviral effect on A549 cells infected with H1N1; format: cell-based, H1N1 A/New Caledonia/20/99 virus; conditions: Influenza A virus, MOI 0.1, 48 h post-infection, MUNANA neuraminidase readout
Procedure: The antiviral effect of the compounds of the invention have been tested on A549 cell lines infected with H1N1 (influenza A/New Caledonia/20/99).
Human A549 cells (80,000 cells/well in a 96 well plate) were treated with a range of concentration of test compounds and immediately infected by H1N1 A/New Caledonia/20/99 virus (clinical isolate) at MOI of 0.1 in DMEM/1% Penicillin/streptomycin supplemented with […] TPCK trypsin (Sigma) and incubated at 37° C. in 5% CO2. 48 h post-infection, supernatants (25 μl) were collected and transferred into a 96-well black flat-bottom plate, mixed with 25 μl PBS with Ca++/Mg++ (Thermo Fisher) and 50 μl of 2′-(4-Methylumbelliferyl)-ax-D-N-acetylneuraminic acid sodium salt hydrate stock-solution (20 μM, MUNANA, Sigma). Plates were incubated 1h at 37° C. and reaction is stopped by adding 100 μl of Stop Solution (glycine 0.1 M pH10.7/25% ethanol). The amount of fluorescent product released by MUNANA hydrolysis (4-MU) was measured in a Tecan spectrophotometer with excitation and emission wavelengths of 365 and 450 nm respectively.

[5] = tested on: NFκB; test: NFκB reporter assay, TNFα stimulation of A549 reporter cells; format: cell-based; conditions: Homo sapiens; A549 NFκB-NanoLuciferase reporter cells, 4 ng/ml TNFα, 6 hours
Text: Compounds of the present invention have been tested for their capacity to inhibit NFκB.
The NFκB reporter construct was made by cloning 5 NFκB responsive elements upstream of a NanoLuciferase reporter gene flanked by AAVS1 genomic sequences.
NFκB Responsive element fused with NanoLuciferase and SV40 late Poly(A) signal was amplified from pNL3.2-NFκB-Nluc (Promega) using NFκB-NLUC-F and NFκB-NLUC-R primers and inserted by Infusion (TaKaRa) in AAVS1 SA-2A-puro-pA donor plasmid (Hockemeyer et al, Nat Biotechnol. 2009, 27, 851-7) digested by Sall. pCRISPR AAVS1-T2 expressing a guide RNA (gRNA) to target human AAVS1 (T2 target sequence) was constructed by inserting AAVS1-T2A hybridized primers in pLentiCRISPR v2-blast (Sanjana et al, Nat Methods. 2014, 11, 783-4) digested by Bsmb1.
A549 cells were transfected by the plasmids and puromycine selected for 5 days (1 μg mL-1). Then clones were obtained by limiting dilution and selected to maximize TNFα dependent NFkB-NanoLuciferase induction.
The reporter cells were seeded on a 96-well plate for overnight with DMEM including 10% FBS. Test compounds were added at varying concentrations. The cells then were treated with 4 ng/ml TNFα (Peprotech, ref E251) in DMEM+10% FBS. NanoGlo luciferase assay (Promega) was carried out 6 hours later. Luminescence was measured using a Spark 20M spectrofluorimeter (Tecan). Values were normalized to the luminescence measured in untreated cells.

Row | Compound | Residual cluster bound at end of experiment (Percentage Absorbance 458 nm at time zero) [1] | Stabiliser of Fe—S cluster binding (time to 50% loss increased by more than 25% vs control) [1] | Time (in minutes) to achieve 50% loss of bound cluster (Absorbance 458 nm) [1] | Residual cluster bound at end of experiment (Percentage Absorbance 458 nm at time zero) [2] | Stabiliser of Fe—S cluster binding (time to 50% loss increased by more than 25% vs control) [2] | Time (in minutes) to achieve 50% loss of bound cluster (Absorbance 458 nm) [2] | Residual cluster bound at end of experiment (Percentage Absorbance 458 nm at time zero) [3] | Stabiliser of Fe—S cluster binding (time to 50% loss increased by more than 25% vs control) [3] | Time (in minutes) to achieve 50% loss of bound cluster (Absorbance 458 nm) [3] | IC50 [4] [nM] | EC50 [5] [nM]
1 | O=C(Nc1scc(-c2ccc(Cl)cc2)c1C(=O)O)c1ccccc1 [Compound #1, 2-Benzamido-4-(4-chlorophenyl)thiophene-3-carboxylic acid] | 13% (3%) | Stabilisers | 425 (310) minutes | 47% (11%) | Stabilisers | 85 (60) minutes | 29% (16%) | stabilisers | 100 (80) minutes | 298 | –
2 | O=C(Nc1scc(C2CCCCC2)c1C(=O)O)c1ccccc1 [Compound #26, 2-Benzamido-4-cyclohexyl-thiophene-3-carboxylic acid] | 18% (3%) | – | 355 (310) minutes | 52% (11%) | Stabilisers | during 180 minutes | 36% (16%) | stabilisers | 105 (80) minutes | 745 | –
3 | Cc1c(-c2ccccc2)sc(NC(=O)c2ccccc2)c1C(=O)O [Compound #40, 2-Benzamido-4-methyl-5-phenyl-thiophene-3-carboxylic acid] | 9% (3%) | Stabilisers | 390 (310) minutes | 24% (11%) | – | 70 (60) minutes | 6% (16%) | – | 95 (80) minutes | 2470 | –
4 | Cc1ccccc1C(=O)Nc1scc(-c2ccccc2)c1C(=O)O [Compound #42, 2-[(2-Methylbenzoyl)amino]-4-phenyl-thiophene-3-carboxylic acid] | 2% (3%) | – | 330 (310) minutes | 37% (11%) | Stabilisers | 75 (60) minutes | 24% (16%) | stabilisers | 100 (80) minutes | 5870 | –
5 | CC1(c2csc(NC(=O)c3ccc(NCC4CCOCC4)cc3)c2C(=O)O)CC1 [Compound #111, 4-(1-Methylcyclopropyl)-2-[[4-(tetrahydropyran-4-ylmethylamino)benzoyl]amino]thiophene-3-carboxylic acid] | – | – | – | – | – | – | – | – | – | 200 | 2200

From US11840527B2, “Non-fused thiophene derivatives and their uses” (ENYO PHARMA, priority 2018, dated 2023)
